# According to patent US20240279205A1, “NOVEL BENZIMIDAZOLE DERIVATIVE” (Carna Biosciences, Inc., priority 2020, published 2024):
# Counter-ions that a name gives are not always drawn.
# Target: T1, human STING (hSTING) (Homo sapiens, UniProt Q86WV6)
# T1 construct: host or cells: HEK-Blue ISG cells (HEK293-derived SEAP reporter line)
# Test: Inhibition test of intracellular human STING (hSTING) pathway using SEAP reporter cells (HEK-Blue ISG), stimulation with Compound 3
# Type: cell-based
# Parameters: hSTING inhibitory activity: scale not given here
# Conditions: Compound 3 10 nM stimulation, 21 hours
# Description: Inhibition test of intracellular human STING (hSTING) pathway using reporter cells
# Since STING activates the transcription factor IRF3 upon ligand stimulation, the activity of STING can be evaluated by a reporter assay using a secretory alkaline phosphatase (SEAP reporter) integrated downstream of an IRF-inducible promoter.
# That is, the hSTING inhibitory activity of the test compound was evaluated using HEK-Blue™MISG cells (manufactured by Invivogen, #hkb-isg-1) incorporating a SEAP reporter. Activation of hSTING was performed by stimulation with the small molecule ligand Compound 3 as described in the literature (Ramanjulu, J. M., et al., Nature. 2018, 564 (7736), 439-443). HEK-Blue™MISG cells were seeded in a 96-well plate and cultured overnight at 37° C. in a 5% CO2 incubator. To each well of this cell culture plate, a test compound solution adjusted to a final concentration of 0.1 to 10 µM of the test compound was added, cultured for 1 hour in a CO2 incubator, and then Compound 3 (final concentration 10 nM) was added and further cultured in a CO2 incubator for 21 hours. After collecting the culture supernatant of each well, the reporter activity was measured by color development reaction with alkaline phosphatase.
# The reporter activity of the test compound non-addition and Compound 3 addition group was set to 100%, and the reporter activity of the test compound non-addition and Compound 3 non-addition group was set to 0%. The IC50 value was determined by regression analysis of the inhibitory rate determined from the reporter activity at each compound concentration and the test compound concentration (logarithm).
# T1 sequence (Q86WV6 whole entry H232R): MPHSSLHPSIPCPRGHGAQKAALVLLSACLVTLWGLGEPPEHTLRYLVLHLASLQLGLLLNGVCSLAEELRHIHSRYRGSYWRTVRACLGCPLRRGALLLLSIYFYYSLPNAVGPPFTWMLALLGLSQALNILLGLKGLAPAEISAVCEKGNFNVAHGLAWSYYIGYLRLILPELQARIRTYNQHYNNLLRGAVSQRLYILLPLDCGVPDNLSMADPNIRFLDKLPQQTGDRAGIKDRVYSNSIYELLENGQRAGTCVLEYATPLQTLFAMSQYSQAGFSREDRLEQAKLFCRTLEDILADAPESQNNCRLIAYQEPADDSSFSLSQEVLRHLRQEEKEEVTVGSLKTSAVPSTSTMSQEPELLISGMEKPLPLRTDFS
row,Compound,hSTING inhibitory activity
1,"CNn1c(Nc2c[nH]c3cc(F)c(F)cc23)nc2cc(C(F)(F)F)cc(F)c21 [Embodiment 273, N2-(5,6-difluoro-1H-indol-3-yl)-7-fluoro-N1-methyl-5-(trifluoromethyl)-1H-benzo[d]imidazole-1,2-diamine]",* * *
2,"Brc1ccc2[nH]cc(Nc3nc4c(-c5ccccc5)cccc4[nH]3)c2n1 [Embodiment 62, N-(5-bromo-1H-pyrrolo[3,2-b]pyridin-3-yl)-4-phenyl-1H-benzo [d]imidazol-2-amine]",* *
3,"CN(C)n1c(Nc2c[nH]c3cc(F)c(F)cc23)nc2cc(C(F)(F)F)cc(F)c21 [Embodiment 279, N2-(5,6-difluoro-1H-indol-3-yl)-7-fluoro-N1,N1-dimethyl-5-(trifluoromethyl)-1H-benzo[d] imidazole-1,2-diamine]",* *
4,"Cc1c(C(F)(F)F)ccc2c1nc(Nc1c[nH]c3ccc(Cl)cc13)n2C [Embodiment 276, N-(5-Chloro-1H-indol-3-yl)-1,4-dimethyl-5-(trifluoromethyl)-1H-benzo[d]imidazol-2-amine]",* * *
5,"Cn1c(Nc2c[nH]c3ccc(Br)nc23)nc2ccc(Oc3ccccc3)cc21 [Embodiment 40, N-(5-bromo-1H-pyrrolo[3,2-b]pyridin-3-yl)-1-methyl-6-phenoxy-1H-benzo[d]imidazol-2-amine]",* * *
6,"Clc1ccc2[nH]cc(Nc3nc4cc(-c5cccc(CN6CCOCC6)c5)ccc4[nH]3)c2n1 [Embodiment 99, N-(5-Chloro-1H-pyrrolo[3,2-b]pyridin-3-yl)-5-[3-(morpholinomethyl)phenyl]-1H-benzo[d] imidazol-2-amine]",* *
7,"C1=C(c2ccnc3c(Nc4nc5cc(Oc6ccccc6)ccc5[nH]4)c[nH]c23)CCCC1 [Embodiment 162, N-[7-(Cyclohex-1-en-1-yl)-1H-pyrrolo[3,2-b]pyridin-3-yl]-5-phenoxy-1H-benzo[d]imidazole-2-amine]",* *
8,"Cn1c(Nc2c[nH]c3ccc(Br)nc23)nc2cc(Oc3ccccc3)ccc21 [Embodiment 41, N-(5-bromo-1H-pyrrolo[3,2-b]pyridin-3-yl)-1-methyl-5-phenoxy-1H-benzo[d]imidazol-2-amine]",* * *

# Results, then the compound that gave them:
row,hSTING inhibitory activity,Compound
1,* * *,"Cn1c(Nc2c[nH]c3ccc(Cl)cc23)nc2cc(C(F)(F)F)c(F)c(F)c21 [Embodiment 274, N-(5-Chloro-1H-indol-3-yl)-6,7-difluoro-1-methyl-5-(trifluoromethyl)-1H-benzo[d]imidazol-2-amine]"
2,* *,"O=S(=O)(c1ccccc1)c1ccc2[nH]c(Nc3c[nH]c4ccc(Br)cc34)nc2c1 [Example 23, N-(5-bromo-1H-indol-3-yl)-5-(phenylsulfonyl)-1H-benzo[d]imidazol-2-amine]"
3,* *,"Brc1ccc2[nH]cc(Nc3nc4cc(OCc5ccccc5)ccc4[nH]3)c2n1 [Embodiment 69, 5-(benzyloxy)-N-(5-bromo-1H-pyrrolo[3,2-b]pyridin-3-yl)-1H-benzo[d]imidazol-2-amine]"
4,* * *,"CN(C)n1c(Nc2c[nH]c3ccc(Cl)cc23)nc2cc(C(F)(F)F)c(F)cc21 [Embodiment 275, N2-(5-Chloro-1H-indol-3-yl)-6-fluoro-N1,N1-dimethyl-5-(trifluoromethyl)-1H-benzo[d] imidazole-1,2-didiamine]"
5,* *,"COC(=O)c1ccc2[nH]cc(Nc3nc4cc(Oc5ccccc5)ccc4[nH]3)c2c1 [Example 22, methyl 3-[(5-phenoxy-1H-benzo[d]imidazol-2-yl)amino]-1H-indole-5-carboxylate]"
6,* *,"Brc1cnc2[nH]cc(Nc3nc4cc(Oc5ccccc5)ccc4[nH]3)c2c1 [Example 10, N-(5-bromo-1H-pyrrolo[2,3-b]pyridin-3-yl)-5-phenoxy-1H-benzo[d]imidazol-2-amine]"

# Same assay, conditions: Compound 3 10 nM stimulation, 21 hours, read-out: hSTING inhibitory activity
row,Compound,IC50 [µM]
1,"Clc1ccc2[nH]cc(Nc3nc4ccccc4[nH]3)c2c1 [Example 15, N-(5-chloro-1H-indol-3-yl)-1H-benzo[d]imidazol-2-amine]",1 to 10
2,"c1ccc(-c2ccc3[nH]cc(Nc4nc5ccccc5[nH]4)c3c2)cc1 [Example 2, N-(5-phenyl-1H-indol-3-yl)-1H-benzo[d]imidazol-2-amine]",≥ 10
3,"Clc1ccc2[nH]cc(Nc3nc4cc(OC5CCOCC5)ccc4[nH]3)c2n1 [Embodiment 142, N-(5-Chloro-1H-pyrrolo[3,2-b]pyridin-3-yl)-5-[(tetrahydro-2H-pyran-4-yl)oxy)-1H-benzo[d] imidazol-2-amine]",≥ 10
4,"C1=C(c2ccc3[nH]cc(Nc4nc5cc(Oc6ccccc6)ccc5[nH]4)c3n2)CCCC1 [Embodiment 48, N-[5-(Cyclohex-1-en-1-yl)-1H-pyrrolo[3,2-b]pyridin-3-yl]-5-phenoxy-1H-benzo[d]imidazol-2-a mine]",1 to 10
5,"C[Si](C)(C)C#Cc1ccc2[nH]cc(Nc3nc4cc(Oc5ccccc5)ccc4[nH]3)c2n1 [Embodiment 106, 5-phenoxy-N-{5-[(trimethylsilyl)ethynyl]-1H-pyrrolo[3,2-b]pyridin-3-yl}-1H-benzo[d]imidazol-2-amine]",1 to 10
6,"C#CCNC(=O)c1ccc2[nH]cc(Nc3nc4cc(Oc5ccccc5)ccc4[nH]3)c2c1 [Example 29, 3-[(5-phenoxy-1H-benzo[d]imidazol-2-yl)amino]-N-(prop-2-yn-1-yl)-1H-indole-5-carboxamide]",≥ 10
7,"CC(C)Oc1ccc2nc(Nc3c[nH]c4ccc(Cl)nc34)n(C)c2c1 [Embodiment 209, N-(5-Chloro-1H-pyrrolo[3,2-b]pyridin-3-yl)-6-isopropoxy-1-methyl-1H-benzo[d]imidazol-2-amine]",1 to 10
8,"Cc1c(F)ccc2[nH]c(Nc3c[nH]c4ccc(Cl)nc34)nc12 [Embodiment 176, N-(5-Chloro-1H-pyrrolo[3,2-b]pyridin-3-yl)-5-fluoro-4-methyl-1H-benzo[d]imidazol-2-amine formate]",1 to 10
9,"Clc1ccc2[nH]cc(Nc3nc4cc(-c5ccc(CN6CCOCC6)cc5)ccc4[nH]3)c2n1 [Embodiment 98, N-(5-Chloro-1H-pyrrolo[3,2-b]pyridin-3-yl)-5-[4-(morpholinomethyl)phenyl]-1H-benzo[d] imidazol-2-amine]",≥ 10
10,"CN(C)c1ccnc2c(Nc3nc4cc(Oc5ccccc5)ccc4[nH]3)c[nH]c12 [Embodiment 70, N7,N7-dimethyl-N3-(5-phenoxy-1H-benzo[d]imidazol-2-yl)-1H-pyrrolo[3,2-b]pyridine-3,7-diamine formate]",≥ 10
11,"Cn1c(Nc2c[nH]c3ccc(Cl)nc23)nc2cc(Oc3cccnc3)ccc21 [Embodiment 198, N-(5-chloro-1H-pyrrolo[3,2-b]pyridin-3-yl)-1-methyl-5-(pyridin-3-yloxy)-1H-benzo[d]imidazole-2-amine]",≥ 10
12,"CN(C)C(=O)c1cccc2[nH]c(Nc3c[nH]c4ccc(Cl)nc34)nc12 [Embodiment 166, 2-[(5-Chloro-1H-pyrrolo[3,2-b]pyridin-3-yl)amino]-N,N-dimethyl-1H-benzo[d]imidazole-4-carboxamide]",≥ 10
13,"Cn1c(Nc2c[nH]c3ccc(Cl)nc23)nc2ccc(F)c(F)c21 [Embodiment 184, N-(5-Chloro-1H-pyrrolo[3,2-b]pyridin-3-yl)-6,7-difluoro-1-methyl-1H-benzo[d]imidazol-2-amine]",≥ 10
14,COCCn1c(Nc2c[nH]c3ccc(Cl)nc23)nc2ccc(-c3ccccc3)cc21 [Embodiment 182],≥ 10

# Continued, values first:
row,IC50 [µM],Compound
1,≥ 10,"O=C(O)c1ccc2[nH]cc(Nc3nc4cc(Oc5ccccc5)ccc4[nH]3)c2c1 [Example 27, 3-[(5-phenoxy-1H-benzo[d]imidazol-2-yl)amino]-1H-indole-5-carboxylic acid]"
2,1 to 10,"Clc1ccc2[nH]cc(Nc3nc4cc(-c5cccnc5)ccc4[nH]3)c2n1 [Embodiment 97, N-(5-Chloro-1H-pyrrolo[3,2-b]pyridin-3-yl)-5-(pyridin-3-yl)-1H-benzo[d]imidazol-2-amine]"
3,≥ 10,"Clc1ccc2[nH]cc(Nc3nc4c5c(ccc4[nH]3)OCCO5)c2n1 [Embodiment 135, N-(5-chloro-1H-pyrrolo[3,2-b]pyridin-3-yl)-7,8-dihydro-3H-[1,4] dioxino[2′,3′:3, 4]benzo[1,2-d]imidazol-2-amine]"
4,≥ 10,"Cn1c(Nc2c[nH]c3ccc(Cl)nc23)nc2c(F)c(F)ccc21 [Embodiment 183, N-(5-Chloro-1H-pyrrolo[3,2-b]pyridin-3-yl)-4,5-difluoro-1-methyl-1H-benzo[d]imidazol-2-amine]"
5,≥ 10,"Clc1ccc2[nH]cc(Nc3nc4cc(OC5COC5)ccc4[nH]3)c2n1 [Embodiment 139, N-(5-Chloro-1H-pyrrolo[3,2-b]pyridin-3-yl)-5-(oxetan-3-yloxy)-1H-benzo[d]imidazol-2-amine]"
6,≥ 10,"COCCOc1cc2nc(Nc3c[nH]c4ccc(Cl)nc34)[nH]c2cc1OCCOC [Embodiment 143, N-(5-Chloro-1H-pyrrolo[3,2-b]pyridin-3-yl)-5,6-bis(2-methoxyethoxy)-1H-benzo[d]imidazol-2-amine]"
